# Test results from US8178522B2, “Thiazoles” (Hoffmann-La Roche Inc., priority 2009, dated 2012).
# Target: T1, GABA A α5 (α5β3γ2) (Homo sapiens, UniProt P18507+P31644)
# T1 construct: expressed in transfected cells; host or cells: HEK293, transiently transfected; membrane preparation
# Assay: [3H]flumazenil competition binding, human GABA A α5 receptor
# Conditions: human receptor α5β3γ2 transiently transfected in HEK293 cells; competition for [3H]flumazenil 0.5 nM; 1 hour at 4° C.; means of two determinations; read-out: hKi GABA A α5
# Procedure: Membrane Preparation and Binding Assay
# The affinity of compounds at GABA A receptor subtypes was measured by competition for [3H]flumazenil (85 Ci/mmol; Roche) binding to HEK293 cells expressing rat (stably transfected) or human (transiently transfected) receptors of compositional α1β3γ2, α2β3γ2, α3β3γ2 and α5β3γ2.
# Cell pellets were suspended in Krebs-tris buffer (4.8 mM KCl, 1.2 mM CaCl2, 1.2 mM MgCl2, 120 mM NaCl, 15 mM Tris; pH 7.5; binding assay buffer), homogenized by polytron for ca. 20 sec on ice and centrifuged for 60 min at 4° C. (50000 g; Sorvall, rotor: SM24=20000 rpm). The cell pellets were re-suspended in Krebs-tris buffer and homogenized by polytron for ca. 15 sec on ice. Protein was measured (Bradford method, Bio-Rad) and aliquots of 1 mL were prepared and stored at −80° C.
# Assays were incubated to equilibrium for 1 hour at 4° C. and harvested onto GF/C uni-filters (Packard) by filtration using a Packard harvester and washing with ice-cold wash buffer (50 mM Tris; pH 7.5). After drying, filter-retained radioactivity was detected by liquid scintillation counting. Ki values were calculated using Excel-Fit (Microsoft) and are the means of two determinations.
row,Ki [nM],SMILES
1,1.9,"CCCCc1noc(C)c1/C=C/c1nc(C)c(C(=O)NC(C)C)s1 [Example 93, 2-[(E)-2-(3-Butyl-5-methyl-isoxazol-4-yl)-vinyl]-4-methyl-thiazole-5-carboxylic acid isopropylamide]"
2,1.9,"CCCCc1noc(C)c1/C=C/c1nc(C)c(C(=O)NC(CO)CO)s1 [Example 98, 2-[(E)-2-(3-Butyl-5-methyl-isoxazol-4-yl)-vinyl]-4-methyl-thiazole-5-carboxylic acid (2-hydroxy-1-hydroxymethyl-ethyl)-amide]"
3,4.2,"Cc1nc(CCc2c(-c3ccccn3)noc2C)sc1C(=O)NCC(F)(F)F [Example 13, 4-Methyl-2-[2-(5-methyl-3-pyridin-2-yl-isoxazol-4-yl)-ethyl]-thiazole-5-carboxylic acid (2,2,2-trifluoro-ethyl)-amide]"
4,14.1,"Cc1nc(CCc2c(-c3ccccn3)noc2C)sc1C(=O)NCCO [Example 14, 4-Methyl-2-[2-(5-methyl-3-pyridin-2-yl-isoxazol-4-yl)-ethyl]-thiazole-5-carboxylic acid (2-hydroxy-ethyl)-amide]"
5,9,"Cc1onc(-c2ccccc2)c1CNc1ncc(C(=O)NC(C)C)s1 [Example 135, 2-[(5-Methyl-3-phenyl-isoxazol-4-ylmethyl)-amino]-thiazole-5-carboxylic acid isoprop-ylamide]"
6,1.8,"Cc1nc(/C=C/c2c(-c3ccc(F)cn3)noc2C)sc1C(=O)NCC1CC1 [Example 75, 2-{(E)-2-[3-(5-Fluoro-pyridin-2-yl)-5-methyl-isoxazol-4-yl]-vinyl}-4-methyl-thiazole-5-carboxylic acid cyclopropylmethyl-amide]"
7,15.7,"Cc1onc(-c2ccc(F)cn2)c1CCc1ncc(C(=O)NCC(F)(F)F)s1 [Example 44, 2-{2-[3-(5-Fluoro-pyridin-2-yl)-5-methyl-isoxazol-4-yl]-ethyl}-thiazole-5-carboxylic acid (2,2,2-trifluoro-ethyl)-amide]"
8,2.6,"CCCCc1noc(C)c1/C=C/c1nc(C)c(C(=O)N[C@H](C)C(F)(F)F)s1 [Example 107, 2-[(E)-2-(3-Butyl-5-methyl-isoxazol-4-yl)-vinyl]-4-methyl-thiazole-5-carboxylic acid ((R)-2,2,2-trifluoro-1-methyl-ethyl)-amide]"
9,0.6,"Cc1nc(/C=C/c2c(-c3ccc(F)cn3)noc2C)sc1C(=O)NC1CCOCC1 [Example 72, 2-{(E)-2-[3-(5-Fluoro-pyridin-2-yl)-5-methyl-isoxazol-4-yl]-vinyl}-4-methyl-thiazole-5-carboxylic acid (tetrahydro-pyran-4-yl)-amide]"
10,45,"CCCCc1noc(C)c1CCc1ncc(C(=O)NCC(C)O)s1 (stereo not drawn) [Example 62, 2-[2-(3-Butyl-5-methyl-isoxazol-4-yl)-ethyl]-thiazole-5-carboxylic acid (2-hydroxy-propyl)-amide]"
11,4.3,"Cc1nc(CCc2c(-c3ccccn3)noc2C)sc1C(=O)NC(C)C [Example 10, 4-Methyl-2-[2-(5-methyl-3-pyridin-2-yl-isoxazol-4-yl)-ethyl]-thiazole-5-carboxylic acid isopropylamide]"
12,25.3,"CNC(=O)c1sc(CCc2c(-c3ccc(F)cn3)noc2C)nc1C [Example 39, 2-{2-[3-(5-Fluoro-pyridin-2-yl)-5-methyl-isoxazol-4-yl]-ethyl}-4-methyl-thiazole-5-carboxylic acid methylamide]"
13,55.9,"Cc1nc(CCc2c(-c3ccc(F)cn3)noc2C)sc1C(=O)N1CCSCC1 [Example 37, (2-{2-[3-(5-Fluoro-pyridin-2-yl)-5-methyl-isoxazol-4-yl]-ethyl}-4-methyl-thiazol-5-yl)-thiomorpholin-4-yl-methanone]"
14,43.3,"CCCCc1noc(C)c1CCc1nc(C)c(C(=O)NCC(C)(C)O)s1 [Example 49, 2-[2-(3-Butyl-5-methyl-isoxazol-4-yl)-ethyl]-4-methyl-thiazole-5-carboxylic acid (2-hydroxy-2-methyl-propyl)-amide]"
15,57.8,"CCCCc1noc(C)c1/C=C/c1nc(C)c(C(=O)N2CCOCC2)s1 [Example 120, {2-[(E)-2-(3-Butyl-5-methyl-isoxazol-4-yl)-vinyl]-4-methyl-thiazol-5-yl}-morpholin-4-yl-methanone]"
16,10.8,"Cc1onc(-c2ccc(F)cn2)c1CCc1ncc(C(=O)NC(C)C)s1 [Example 41, 2-{2-[3-(5-Fluoro-pyridin-2-yl)-5-methyl-isoxazol-4-yl]-ethyl}-thiazole-5-carboxylic acid isopropylamide]"
17,18.1,"CCNC(=O)c1cnc(CCc2c(-c3ccc(F)cn3)noc2C)s1 [Example 46, 2-{2-[3-(5-Fluoro-pyridin-2-yl)-5-methyl-isoxazol-4-yl]-ethyl}-thiazole-5-carboxylic acid ethylamide]"

row,Ki [nM],SMILES
1,2.9,"Cc1onc(-c2ccc(F)cn2)c1/C=C/c1ncc(C(=O)NC(C)C)s1 [Example 78, 2-{(E)-2-[3-(5-Fluoro-pyridin-2-yl)-5-methyl-isoxazol-4-yl}-vinyl]-thiazole-5-carboxylic acid isopropylamide]"
2,4.7,"CCCCc1noc(C)c1/C=C/c1nc(C)c(C(=O)NC2CCC2)s1 [Example 115, 2-[(E)-2-(3-Butyl-5-methyl-isoxazol-4-yl)-vinyl]-4-methyl-thiazole-5-carboxylic acid cyclobutylamide]"
3,34.7,"Cc1onc(-c2ccccn2)c1CCc1ncc(C(=O)NCC2CC2)s1 [Example 26, 2-[2-(5-Methyl-3-pyridin-2-yl-isoxazol-4-yl)-ethyl]-thiazole-5-carboxylic acid cyclo-propylmethyl-amide]"
4,26.3,"Cc1onc(-c2ccc(F)cn2)c1CCc1ncc(C(=O)NCCO)s1 [Example 45, 2-{2-[3-(5-Fluoro-pyridin-2-yl)-5-methyl-isoxazol-4-yl]-ethyl}-thiazole-5-carboxylic acid (2-hydroxy-ethyl)-amide]"
5,4.4,"CCCCc1noc(C)c1/C=C/c1nc(C)c(C(=O)NCC2CC2)s1 [Example 116, 2-[(E)-2-(3-Butyl-5-methyl-isoxazol-4-yl)-vinyl]-4-methyl-thiazole-5-carboxylic acid cyclopropylmethyl-amide]"
6,5.1,"CCCCc1noc(C)c1/C=C/c1nc(C)c(C(=O)NC2CC2)s1 [Example 113, 2-[(E)-2-(3-Butyl-5-methyl-isoxazol-4-yl)-vinyl]-4-methyl-thiazole-5-carboxylic acid cyclopropylamide]"
7,40.2,"COC(=O)c1cnc(CCc2c(-c3ccccn3)noc2C)s1 [Example 21, 2-[2-(5-Methyl-3-pyridin-2-yl-isoxazol-4-yl)-ethyl]-thiazole-5-carboxylic acid methyl ester]"
8,50.9,"CCCCc1noc(C)c1CCc1ncc(C(=O)NC(C)CO)s1 (stereo not drawn) [Example 58, 2-[2-(3-Butyl-5-methyl-isoxazol-4-yl)-ethyl]-thiazole-5-carboxylic acid (2-hydroxy-1-methyl-ethyl)-amide]"
9,4.7,"CCCCc1noc(C)c1/C=C/c1nc(C)c(C(=O)NC(C)CO)s1 (racemic) [Example 97, Rac-2-[(E)-2-(3-Butyl-5-methyl-isoxazol-4-yl)-vinyl]-4-methyl-thiazole-5-carboxylic acid (2-hydroxy-1-methyl-ethyl)-amide]"
10,23.1,"CCCCc1noc(C)c1CCc1nc(C)c(C(=O)NC(C)C)s1 [Example 48, 2-[2-(3-Butyl-5-methyl-isoxazol-4-yl)-ethyl]-4-methyl-thiazole-5-carboxylic acid iso-propylamide]"
11,1.3,"CCCCc1noc(C)c1/C=C/c1nc(C)c(C(=O)Nc2cnn(C)c2)s1 [Example 112, 2-[(E)-2-(3-Butyl-5-methyl-isoxazol-4-yl)-vinyl]-4-methyl-thiazole-5-carboxylic acid (1-methyl-1-pyrazol-4-yl)-amide]"
12,21,"CCCCc1noc(C)c1/C=C/c1nc(C)c(C(=O)NC(C)(C)CO)s1 [Example 117, 2-[(E)-2-(3-Butyl-5-methyl-isoxazol-4-yl)-vinyl]-4-methyl-thiazole-5-carboxylic acid (2-hydroxy-1,1-dimethyl-ethyl)-amide]"
13,1.8,"CCCCc1noc(C)c1/C=C/c1nc(C)c(C(=O)NN2CCOCC2)s1 [Example 103, 2-[(E)-2-(3-Butyl-5-methyl-isoxazol-4-yl)-vinyl]-4-methyl-thiazole-5-carboxylic acid morpholin-4-ylamide]"
14,4.2,"Cc1onc(-c2ccccc2)c1COc1ncc(C(=O)NC(C)CO)s1 (stereo not drawn) [Example 129, 2-(5-Methyl-3-phenyl-isoxazol-4-ylmethoxy)-thiazole-5-carboxylic acid (2-hydroxy-1-methyl-ethyl)-amide]"
15,32.4,"Cc1onc(-c2ccccn2)c1CCc1ncc(C(=O)NCCO)s1 [Example 29, 2-[2-(5-Methyl-3-pyridin-2-yl-isoxazol-4-yl)-ethyl]-thiazole-5-carboxylic acid (2-hydroxy-ethyl)-amide]"
16,1.5,"Cc1nc(/C=C/c2c(-c3ccc(F)cn3)noc2C)sc1C(=O)NC(C)C [Example 71, 2-{(E)-2-[3-(5-Fluoro-pyridin-2-yl)-5-methyl-isoxazol-4-yl]-vinyl}-4-methyl-thiazole-5-carboxylic acid isopropylamide]"
